Data reported in article PMC6063448, “Antimicrobial activity of linear lipopeptides derived from BP100 towards plant pathogens” (PLoS ONE, 2018).

Key:
[1] = tested on: Fusarium oxysporum f. sp. lycopersici FOL 3 race 2; test: MIC, antifungal growth inhibition in microtiter plates (PDB); type: cell-based; settings: Fo, 22°C, seven days, OD 600 nm, lowest concentration with no growth, given as interval of tested concentrations, three replicates, experiment repeated twice
Outline: (§1)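 Conidial suspensions (10^3 conidia/mL P. expansum, 10^4 F. oxysporum) incubated with peptides in PDB with 0.003% chloramphenicol at 22 °C for seven days, OD600 read every 2 h. MIC is the lowest concentration with no growth at the end; triplicates, experiment repeated twice.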

[2] = tested on: Penicillium expansum EPS26; test: as above; type: cell-based; settings: Pe, 22°C, seven days, OD 600 nm, lowest concentration with no growth, given as interval of tested concentrations, three replicates, experiment repeated twice
Outline: as §1

[3] = tested on: defense-related genes in tomato plants; test: Induction of defense gene expression of tomato plants (RT-qPCR); type: in vivo, tomato cv. Rio Grande; settings: for BCB gene expression, fold induction / ERT3 gene expression, fold induction / GluA gene expression, fold induction / Harp gene expression, fold induction / LOX gene expression, fold induction / Osm2 gene expression, fold induction / PPO gene expression, fold induction / PR1 gene expression, fold induction / PinII gene expression, fold induction / Sub1 gene expression, fold induction / Tas14 gene expression, fold induction: tomato leaves sprayed, 24 h, peptides and flg15 125 μM, JA 2.5 mM, ASM 300 mg/L, ΔΔCt relative to actin, above 2 = overexpression; for Number of defense-related genes significantly induced / Defense gene expression in tomato plants (genes overexpressed): treatment at 125 μM; for Defense gene expression in tomato plants (genes overexpressed): significant overexpression (REST2009)
Method: Seeds of tomato cv. Rio Grande plants were sown in hydroponic seed plugs (rockwool), germinated and grown under controlled greenhouse conditions (25 ± 2°C, 16 h light / 15 ± 2°C, 8 h dark, and 60% RH). Two-week old seedlings (two cotyledons) were transplanted into rockwool plugs (7.5×7.5×6.5 cm, Grodan Iberica). The experimental design consisted of three replicates of three plants per treatment. After two weeks, tomato leaves were sprayed with aqueous solutions of BP100, 9 selected derivatives and flg15 at 125 μM, jasmonic acid at 2.5 mM (Sigma-Aldrich, Sant Louis, Missouri, UE), and acybenzolar-S-methyl at 300 mg/L (Syngenta, Basel, Switzerland), until the run-off point. Water-sprayed plants were used as not treated controls. Twenty-four hours after product application leaf samples were collected and processed to extract RNA for RT-qPCR assays. Plant material was ground to a fine powder in liquid nitrogen with the Tissuelyzer II system (Qiagen). Total RNA was extracted from leaves using PureLink Plant RNA Reagent (Invitrogen, Life Technologies) according to the manufacturer’s manual. The RNA was solubilized in RNAse free water and was routinely subjected to DNAse treatment (Ambion® Turbo DNA-free™, Life Technologies) to remove any contaminant DNA. In each step, the RNA was quantified using a Nanodrop N-2000 spectrophotometer, and its integrity verified by denaturing agarose gel electrophoresis. First-strand of complementary DNA (cDNA) was generated from leave RNA using reverse transcriptase (High Capacity cDNA Reverse Transcription Kit, Invitrogen) according to the manufacturer’s manual.
To test gene defense induction in the treated tomato plants, a qPCR assay was performed. Quantitative PCR was carried out in a fluorometric thermal cycler (qPCR Quant Studio 5, Applied Biosystems) by using a Mix SYBR®Green PCR Master Mix (Applied Biosystems). The total reaction volume of this PCR reaction was 20 μL and the reaction mixture was 1 μL of each primer set at the adequate concentration, 10 μL of MixSyber Green, 6 μL of distilled water and 2 μL of cDNA. Melting curve analysis was performed after amplification to verify amplification specificity. A constitutive gene (actin gene) was used as reference control, and the following genes implicated in plant defense response were analyzed: Pathogenesis-related protein-1 (PR1), Harpin (Harp), Polyphenol oxidase (PPO), Subtilisin-like protease (Sub1), Blue copper binding-protein (BCB), Osmotin (Osm2), Acidic β-1,3 endoglucanase (GluA), Lypoxigenase (LOX), Protein inhibitor II (PinII), Dehydrin (Tas14) and Ethylene response transcription factor (ERT3). […] For each gene system, the concentration of the primer pair was optimized. The primer concentration was 100 nM for all the genes except for the GluA, Harp, PR1 and actin genes which optimized concentration was 300 nM. A calibration curve was prepared by cloning the corresponding DNA in the pSpark cloning vector (Canvax, Córdoba, Spain) according to the manufacturer instructions, which was then used to transform E. coli DH5α by standard procedures. The number of plasmid copies were quantified after purification from E. coli (QIAGEN Iberia, S. L., Madrid, Spain), and appropriate dilutions were prepared to obtain the standard curve. […] Relative quantification of gene expression was done using the ΔΔCt method. Each biological repetition treatment was analyzed in duplicate. The mean of the Ct values obtained were used to estimate the fold change value of the endogenous reference gene (actin) and the target plant defense genes.

| SMILES | MIC [1] | MIC [2] | BCB gene expression, fold induction [3] | ERT3 gene expression, fold induction [3] | GluA gene expression, fold induction [3] | Harp gene expression, fold induction [3] | LOX gene expression, fold induction [3] | Osm2 gene expression, fold induction [3] | PPO gene expression, fold induction [3] | PR1 gene expression, fold induction [3] | PinII gene expression, fold induction [3] | Sub1 gene expression, fold induction [3] | Tas14 gene expression, fold induction [3] | Number of defense-related genes significantly induced [3] | Defense gene expression in tomato plants (genes overexpressed) [3] |
| --- | --- | --- | --- | --- | --- | --- | --- | --- | --- | --- | --- | --- | --- | --- | --- |
| CCCCCC(=O)NCCCC[C@H](NC(=O)[C@H](CC(C)C)NC(=O)[C@H](CCCCN)NC(=O)[C@H](CCCCN)NC(C)=O)C(=O)N[C@@H](CCCCN)C(=O)N[C@@H](CCCCN)C(=O)N[C@H](C(=O)N[C@@H](CC(C)C)C(=O)N[C@@H](CCCCN)C(=O)N[C@@H](Cc1ccc(O)cc1)C(=O)N[C@@H](CC(C)C)C(N)=O)[C@@H](C)CC [BP371, Ac-KKLK(COC5H11)KKILKYL-NH2] | 0.8 to 1.6 µM | 3.1 to 6.2 µM | 1.0 | 0.9 | 0.5 | 0.9 | 1.1 | 0.9 | 0.6 | 0.7 | 1.7 | 0.8 | 0.7 | – | – |
| CCCCCC(=O)NCCCC[C@H](NC(=O)[C@H](Cc1ccc(O)cc1)NC(=O)[C@H](CCCCN)NC(=O)[C@H](CC(C)C)NC(=O)[C@@H](NC(=O)[C@H](CCCCN)NC(=O)[C@H](CCCCN)NC(=O)[C@H](Cc1ccccc1)NC(=O)[C@H](CC(C)C)NC(=O)[C@H](CCCCN)NC(=O)[C@H](CCCCN)NC(C)=O)[C@@H](C)CC)C(N)=O [BP378, Ac-KKLFKKILKYK(COC5H11)-NH2] | 0.8 to 1.6 µM | 3.1 to 6.2 µM | 1.3 | 1.0 | 0.6 | 1.2 | 1.5 | 2.9 | 1.7 | 2.0 | 5.8 | 0.9 | 3.5 | 3 | PinII, Osm2 and Tas14 |
| CCCC(=O)NCCCC[C@H](NC(=O)[C@H](CCCCN)NC(C)=O)C(=O)N[C@@H](CC(C)C)C(=O)N[C@@H](Cc1ccccc1)C(=O)N[C@@H](CCCCN)C(=O)N[C@@H](CCCCN)C(=O)N[C@H](C(=O)N[C@@H](CC(C)C)C(=O)N[C@@H](CCCCN)C(=O)N[C@@H](Cc1ccc(O)cc1)C(=O)N[C@@H](CC(C)C)C(N)=O)[C@@H](C)CC [BP381, Ac-KK(COC3H7)LFKKILKYL-NH2] | 0.8 to 1.6 µM | 1.6 to 3.1 µM | 1.2 | 0.7 | 0.6 | 0.7 | 0.8 | 2.1 | 1.3 | 0.2 | 0.4 | 0.5 | 3.4 | – | one gene (Osm2, Tas14 or BCB) and Osm2 |
| CCCCCC(=O)NCCCC[C@H](NC(=O)[C@H](CCCCN)NC(=O)[C@H](CCCCN)NC(=O)[C@H](Cc1ccccc1)NC(=O)[C@H](CC(C)C)NC(=O)[C@H](CCCCN)NC(=O)[C@H](CCCCN)NC(C)=O)C(=O)N[C@@H](CC(C)C)C(=O)N[C@@H](CCCCN)C(=O)N[C@@H](Cc1ccc(O)cc1)C(=O)N[C@@H](CC(C)C)C(N)=O [BP374, Ac-KKLFKKK(COC5H11)LKYL-NH2] | 0.8 to 1.6 µM | >25 µM | 1.0 | 2.0 | 0.5 | 0.9 | 1.9 | 1.6 | 0.7 | 0.5 | 1.7 | 0.8 | 1.2 | – | – |
| CCCC(=O)NCCCC[C@H](NC(=O)[C@H](CCCCN)NC(=O)[C@H](Cc1ccccc1)NC(=O)[C@H](CC(C)C)NC(=O)[C@H](CCCCN)NC(=O)[C@H](CCCCN)NC(C)=O)C(=O)N[C@H](C(=O)N[C@@H](CC(C)C)C(=O)N[C@@H](CCCCN)C(=O)N[C@@H](Cc1ccc(O)cc1)C(=O)N[C@@H](CC(C)C)C(N)=O)[C@@H](C)CC [BP385, Ac-KKLFKK(COC3H7)ILKYL-NH2] | 1.6 to 3.1 µM | 6.2 to 12.5 µM | 4.2 | 0.2 | 0.7 | 2.3 | 1.1 | 1.2 | 1.7 | 3.2 | 7.1 | 1.0 | 0.7 | – | one gene (Osm2, Tas14 or BCB) |
| CCCC(=O)NCCCC[C@H](NC(=O)[C@H](CCCCN)NC(=O)[C@H](CC(C)C)NC(=O)[C@@H](NC(=O)[C@H](CCCCN)NC(=O)[C@H](CCCCN)NC(=O)[C@H](Cc1ccccc1)NC(=O)[C@H](CC(C)C)NC(=O)[C@H](CCCCN)NC(=O)[C@H](CCCCN)NC(C)=O)[C@@H](C)CC)C(=O)N[C@@H](CC(C)C)C(N)=O [BP389, Ac-KKLFKKILKK(COC3H7)L-NH2] | 1.6 to 3.1 µM | 6.2 to 12.5 µM | 2.1 | 0.1 | 0.3 | 0.9 | 1.2 | 1.0 | 0.5 | 0.3 | 2.8 | 0.5 | 0.7 | 2 | PinII and BCB |
| CCCC(=O)NCCCC[C@H](NC(=O)[C@H](Cc1ccc(O)cc1)NC(=O)[C@H](CCCCN)NC(=O)[C@H](CC(C)C)NC(=O)[C@@H](NC(=O)[C@H](CCCCN)NC(=O)[C@H](CCCCN)NC(=O)[C@H](Cc1ccccc1)NC(=O)[C@H](CC(C)C)NC(=O)[C@H](CCCCN)NC(=O)[C@H](CCCCN)NC(C)=O)[C@@H](C)CC)C(N)=O [BP390, Ac-KKLFKKILKYK(COC3H7)-NH2] | 0.8 to 1.6 µM | 6.2 to 12.5 µM | 0.6 | 0.7 | 0.6 | 0.5 | 1.2 | 3.0 | 0.9 | 0.2 | 0.2 | 0.7 | 1.0 | – | one gene (Osm2, Tas14 or BCB) |
